The target of series [1] is T1, human amylin receptor (amylin 3(a) receptor: human calcitonin receptor + RAMP-3) (Homo sapiens, UniProt O60896+P30988).
T1 construct: expressed in transfected cells; host or cells: BHK570
T1 sequence (P30988 25-474): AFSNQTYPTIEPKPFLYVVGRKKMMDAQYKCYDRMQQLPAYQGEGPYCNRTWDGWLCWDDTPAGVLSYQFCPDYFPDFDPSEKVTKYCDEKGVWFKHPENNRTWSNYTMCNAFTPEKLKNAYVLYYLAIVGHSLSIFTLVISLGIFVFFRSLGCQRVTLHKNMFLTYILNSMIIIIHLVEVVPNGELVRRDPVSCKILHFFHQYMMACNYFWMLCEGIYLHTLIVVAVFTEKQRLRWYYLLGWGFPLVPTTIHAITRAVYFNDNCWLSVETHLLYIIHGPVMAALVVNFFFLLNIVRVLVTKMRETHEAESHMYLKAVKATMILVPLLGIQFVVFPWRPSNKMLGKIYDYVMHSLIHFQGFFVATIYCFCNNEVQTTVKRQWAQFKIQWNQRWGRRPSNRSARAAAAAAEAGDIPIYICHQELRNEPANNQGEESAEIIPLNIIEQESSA
T1 sequence (O60896 24-148 partner): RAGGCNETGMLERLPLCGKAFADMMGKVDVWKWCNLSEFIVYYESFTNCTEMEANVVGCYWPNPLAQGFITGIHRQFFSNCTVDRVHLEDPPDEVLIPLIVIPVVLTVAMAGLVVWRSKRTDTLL
Nature of the series: Assay (II)a functional CRE-luciferase assay, human amylin receptor. Format: cell-based.

The target of series [2] is T2, human calcitonin receptor (Homo sapiens, UniProt P30988).
T2 construct: expressed in transfected cells; host or cells: BHK570
T2 sequence (P30988 25-474): T1 sequence (P30988 25-474)
Nature of the series: Assay (II)a functional CRE-luciferase assay, human calcitonin receptor. The series is classed as cell-based.

The target in series [3] is T3, rat amylin 3(a) receptor (rat calcitonin(a) receptor + rat RAMP3) (Rattus norvegicus, UniProt P32214+Q9JJ73).
T3 construct: expressed in transfected cells; host or cells: BHK tk'ts 13
T3 sequence (P32214 25-479 isoform P32214-2 limits assumed): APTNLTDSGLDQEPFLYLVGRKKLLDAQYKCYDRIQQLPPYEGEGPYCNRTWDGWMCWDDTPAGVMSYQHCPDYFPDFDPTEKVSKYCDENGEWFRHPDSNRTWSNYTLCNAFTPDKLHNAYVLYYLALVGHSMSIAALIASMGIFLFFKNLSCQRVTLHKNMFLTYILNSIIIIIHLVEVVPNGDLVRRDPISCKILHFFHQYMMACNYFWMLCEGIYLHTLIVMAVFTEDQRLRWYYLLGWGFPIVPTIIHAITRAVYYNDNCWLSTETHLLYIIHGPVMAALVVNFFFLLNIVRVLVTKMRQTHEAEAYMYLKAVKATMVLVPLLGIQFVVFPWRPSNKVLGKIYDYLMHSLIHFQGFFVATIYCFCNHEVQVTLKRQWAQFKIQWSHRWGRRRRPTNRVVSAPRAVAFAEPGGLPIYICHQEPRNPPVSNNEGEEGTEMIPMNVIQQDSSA
T3 sequence (Q9JJ73 23-147 partner): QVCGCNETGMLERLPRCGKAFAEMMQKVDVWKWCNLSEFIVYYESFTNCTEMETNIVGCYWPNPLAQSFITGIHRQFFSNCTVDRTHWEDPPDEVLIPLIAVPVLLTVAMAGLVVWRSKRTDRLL
Nature of the series: Assay (II)b functional cAMP FlashPlate assay, rat amylin receptor. The series is classed as cell-based. To be noted: Table 11. In outline:
(§1)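 cAMP accumulation in transiently transfected BHK tk'ts 13 cells, 100.000 cells/well, expressing rat calcitonin(a) receptor or its RAMP3 co-expression form (amylin 3(a)): 30 min stimulation with IBMX, 24 hours post-transfection. Readout by competition of cellular versus radiolabelled cAMP in FlashPlates, scintillation counted after 3 h.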

Series [4] concerns the target T4, rat calcitonin (a) receptor (Rattus norvegicus, UniProt P32214).
T4 construct: expressed in transfected cells; host or cells: BHK tk'ts 13
T4 sequence (P32214 25-479 isoform P32214-2 limits assumed): T3 sequence (P32214 25-479 isoform P32214-2 limits assumed)
As to the kind of experiment: Assay (II)b functional cAMP FlashPlate assay, rat calcitonin receptor. The series is classed as cell-based. The conditions noted are these: Table 11; read-out: CTa receptor rat EC50. In outline:
as §1

A short description of series [5]: Assay (IV) determination of solubility. Format: physicochemical. In outline:
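Stock ~500 nmol/ml in water; 1:1 with 100 mM buffer, pH 3.0–8.0 (glycylglycine ≤5.0, bistrispropane ≥6.0); 18 h RT; spin; HPLC quantitation of soluble polypeptide.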

The mark [6] stands for this setting: Table 2, BHK amylin 3(a)-receptor/CRE-luc cells.
[7] abbreviates: Table 7, human calcitonin (CTa) receptor.

Structures are written as SMILES. In brackets after ≈: the same amount, converted by molar mass. Where two headings read alike, the source gives them in different places. Starred links: 1 amine or outer side, 2 acyl side, 3 side chain; linkers in the order of their positions; H or OH if unused. Positions of bridges follow the written chain, without caps; N, C: chain ends. Non-standard residues stand in square brackets, D forms with d. Residues, ends and D or L forms follow the SMILES beside them. *: point of attachment. C20 diacid = O=C(O)CCCCCCCCCCCCCCCCCCC(=O)*; γGlu = O=C(O)[C@H](CCC(=O)[*:2])N[*:1]; AEEA = NCCOCCOCC(=O)O

In general, EC50 refers to the concentration that produces a half-maximal response. The solubility is the concentration that dissolves in the medium under given conditions. On to `CC[C@H](C)[C@H](NC(=O)[C@@H]1CCCN1C(=O)CNC(=O)[C@H](Cc1ccccc1)NC(=O)[C@H](CC(N)=O)NC(=O)[C@H](CC(N)=O)NC(=O)[C@H](CO)NC(=O)[C@H](CO)NC(=O)[C@H](Cc1cnc[nH]1)NC(=O)[C@H](CCCNC(=N)N)NC(=O)[C@H](CC(C)C)NC(=O)[C@H](Cc1ccccc1)NC(=O)[C@H](CCC(=O)O)NC(=O)[C@H](C)NC(=O)[C@H](CC(C)C)NC(=O)[C@H](CCCNC(=N)N)NC(=O)[C@H](CCC(N)=O)NC(=O)[C@@H](NC(=O)[C@H](C)NC(=O)[C@@H]1CSSC[C@H](NC(=O)[C@H](Cc2cnc[nH]2)NC(=O)[C@H](Cc2cnc[nH]2)NC(=O)[C@H](Cc2cnc[nH]2)NC(=O)CC[C@H](NC(=O)CCCCCCCCCCCCCCCCCCC(=O)O)C(=O)O)C(=O)N[C@@H](CC(N)=O)C(=O)N[C@@H]([C@@H](C)O)C(=O)N[C@@H](C)C(=O)N[C@@H]([C@@H](C)O)C(=O)N1)[C@@H](C)O)C(=O)N[C@@H](CC(C)C)C(=O)N1CCC[C@H]1C(=O)N1CCC[C@H]1C(=O)N[C@H](C(=O)N[C@@H](CC(N)=O)C(=O)N[C@H](C(=O)NCC(=O)N[C@@H](CO)C(=O)N[C@@H](CC(N)=O)C(=O)N[C@H](C(=O)N[C@@H](Cc1ccc(O)cc1)C(N)=O)[C@@H](C)O)C(C)C)[C@@H](C)O` [Example 12, N-alpha-[(S)-4-Carboxy-4-(19-carboxynonadecanoylamino)butyryl]-His-His-[His1,Glu14,Arg17]-pramlintide] ({C20 diacid-γGlu}-HHHCNTATCATQRLAEFLRHSSNNFGPILPPTNVGSNTY-NH2; disulfide 4-9), for which the EC50 in series [1] (setting [6]) was determined as 0.0775 nM; in series [2] (setting [7]), 0.409 nM; in series [3] it was 0.082 nM; in series [4], 6.76 nM. Moreover, the solubility at 18 h in series [5] (bistrispropane buffer, pH 6, pH 6.0, read-out: Solubility pH 6.0) was over 200 µM; in series [5] (bistrispropane buffer, pH 6.5, pH 6.5, read-out: Solubility pH 6.5), 45 µM (≈ 214 µg/mL); in series [5] (bistrispropane buffer, pH 7.5, pH 7.5, read-out: Solubility pH 7.5) it was 26 µM (≈ 124 µg/mL); in series [5] (bistrispropane buffer, pH 8, pH 8.0, read-out: Solubility pH 8.0), 69 µM (≈ 328 µg/mL); in series [5] (glycylglycine buffer, pH 3, pH 3.0, read-out: Solubility pH 3.0), over 200 µM; in series [5] (glycylglycine buffer, pH 4, pH 4.0, 18 hours at room temperature, Table 2, read-out: Solubility pH 4.0), over 200 µM. For the same molecule, the solubility at 18 h was over 200 µM in series [5] (glycylglycine buffer, pH 4, pH 4.0, read-out: Solubility pH 4.0); over 200 µM in series [5] (glycylglycine buffer, pH 5, pH 5.0, read-out: Solubility pH 5.0); 9 µM (≈ 42.8 µg/mL) in series [5] (pH 7.0, read-out: Solubility pH 7.0).
Consider `CC[C@H](C)[C@H](NC(=O)[C@@H]1CCCN1C(=O)CNC(=O)[C@H](Cc1ccccc1)NC(=O)[C@H](CC(N)=O)NC(=O)[C@H](C)NC(=O)[C@H](CO)NC(=O)[C@H](CO)NC(=O)[C@H](CCCNC(=N)N)NC(=O)[C@H](Cc1cnc[nH]1)NC(=O)[C@H](CC(C)C)NC(=O)[C@H](Cc1ccccc1)NC(=O)[C@H](CCC(=O)O)NC(=O)[C@H](C)NC(=O)[C@H](CC(C)C)NC(=O)[C@H](CCCNC(=N)N)NC(=O)[C@H](CCC(N)=O)NC(=O)[C@@H](NC(=O)[C@H](C)NC(=O)[C@@H]1CSSC[C@H](NC(=O)[C@H](CCCCN)NC(=O)[C@@H](CCCNC(=N)N)NC(=O)[C@@H](CCCNC(=N)N)NC(=O)COCCOCCNC(=O)COCCOCCNC(=O)CC[C@H](NC(=O)CCCCCCCCCCCCCCCCCCC(=O)O)C(=O)O)C(=O)N[C@@H](CC(N)=O)C(=O)N[C@@H]([C@@H](C)O)C(=O)N[C@@H](C)C(=O)N[C@@H]([C@@H](C)O)C(=O)N1)[C@@H](C)O)C(=O)N[C@@H](CC(C)C)C(=O)N1CCC[C@H]1C(=O)N1CCC[C@H]1C(=O)N[C@H](C(=O)N[C@@H](CC(N)=O)C(=O)N[C@H](C(=O)NCC(=O)N[C@@H](CO)C(=O)N[C@@H](CO)C(=O)N[C@H](C(=O)N[C@@H](Cc1ccc(O)cc1)C(N)=O)[C@@H](C)O)C(C)C)[C@@H](C)O` [Example 38, N-alpha-[2-(2-{2-[2-(2-{2-[(S)-4-Carboxy-4-(19-carboxyheptadecanoylamino)butyrylamino]ethoxy}ethoxy)acetylamino]ethoxy}ethoxy)acetyl]-D-Arg-D-Arg-[Glu14,His17,Arg18,Ala21,Ser35]-pramlintide] ({C20 diacid-γGlu-AEEA-AEEA}-[dR][dR]KCNTATCATQRLAEFLHRSSANFGPILPPTNVGSSTY-NH2; disulfide 4-9), for which the EC50 in series [1] (setting [6]) was 0.149 nM; in series [1] (Table 3, BHK amylin 3(a)-receptor/CRE-luc cells), 0.149 nM; in series [1] (Table 4) it was 0.149 nM; in series [1] (Table 5) it was 0.149 nM; in series [1] (Table 6, human amylin receptor), 0.149 nM; in series [1] (Table 7, human amylin receptor), 0.149 nM. Besides, the EC50 in series [1] (Table 8) was 0.149 nM; in series [1] (Table 9) it was 0.149 nM; in series [1] (Table 11), 0.149 nM; in series [2] (setting [7]), 1.11 nM; in series [2] (Table 11, read-out: CTa receptor human EC50), 1.11 nM; in series [3] it was 0.233 nM. In addition, the half-maximal effective concentration (EC50) in series [4] came out at 4.48 nM. The solubility in series [5] (pH 3, pH 3.0, read-out: Solubility pH 3.0) is over 200 µM; in series [5] (pH 4, pH 4.0, 18 hours at room temperature, Table 2, read-out: Solubility pH 4.0), over 200 µM; in series [5] (pH 4, pH 4.0, read-out: Solubility pH 4.0), over 200 µM; in series [5] (pH 5, pH 5.0, read-out: Solubility pH 5.0) it was over 200 µM; in series [5] (pH 6, pH 6.0, read-out: Solubility pH 6.0) it was over 200 µM; in series [5] (pH 6.5, pH 6.5, read-out: Solubility pH 6.5), over 200 µM. The solubility is over 200 µM in series [5] (pH 7, pH 7.0, 18 hours at room temperature, Table 3, read-out: Solubility pH 7.0); over 200 µM in series [5] (pH 7, pH 7.0, Table 8, read-out: Solubility pH 7.0); over 200 µM in series [5] (pH 7, pH 7.0, Table 9, read-out: Solubility pH 7.0); over 200 µM in series [5] (pH 7, pH 7.0, read-out: Solubility pH 7.0); over 200 µM in series [5] (pH 7.5, pH 7.5, Table 9, read-out: Solubility pH 7.5); over 200 µM in series [5] (pH 7.5, pH 7.5, read-out: Solubility pH 7.5). Further, the solubility in series [5] (pH 8, pH 8.0, read-out: Solubility pH 8.0) was over 200 µM.

The values above are taken from patent US8722849B2, “Polypeptides” (Novo Nordisk A/S, priority 2011, dated 2014).
